Read-outs that look alike come from different tables or passages of the source.
Experiments:
[1] = biological target: T1, human serotonin 5-HT6 receptor (Homo sapiens, UniProt P50406); assay: Radioligand binding assay, human 5-HT6 receptors ([3H]LSD); details: read-out: IC50 (nM) 5-HT6
T1 construct: expressed in transfected cells; host or cells: HeLa/E6-7
Description: (§1) The human 5-HT2a and 5-HT2b screens were conducted according to Bonhaus, D. W. et al. Br. J. Pharmacol. 1995, 115, 622. The human 5-HT2c screen was conducted according to Wolf, W. A. et al. J. Neurochem. 1997, 69, 1449. The human 5-HT6 screen was conducted according to Monsma, F. J. et al. Mol. Pharmacol. 1993, 43, 320.
This assay measures binding of [^3H]LSD (lysergic acid diethylamide) to human serotonin 5-HT6 receptors. HeLa/E6–7 cells stably transfected with a plasmid encoding the human serotonin 5-HT6 receptor were used to prepare membranes in modified Tris-HCl pH 7.4 buffer using standard techniques. A 30 μg aliquot of membrane was incubated with 1.5 nM [^3H]LSD for 120 minutes at 37° C. Non-specific binding was estimated in the presence of 5 μM 5-HT. Membranes were filtered and washed 3 times and the filters were counted to determine [^3H]LSD specifically bound. See Monsma, Jr., F. J. et al. “Cloning and expression of a novel serotonin receptor with high affinity for tricyclic psychotropic drugs” Mol. Pharmacol. 43: 320–327, 1993.
(§2) The human 5-HT2a and 5-HT2b screens were conducted according to Bonhaus, D. W. et al. Br. J. Pharmacol. 1995, 115, 622. The human […], W. A. et al. J. Neurochem. 1997, 69, 1449. The human 5-HT6 screen was conducted according to Monsama, F. J. et al. Mol. Pharmacol. 1993, 43, 320. The assay to human D3 receptors was conducted according to Sokoloff, P. et al. Nature 1990, 347;146. The human dopamine transporter assay was conducted according to Gu, H. et. al. J. Biol. Chem. 1994, 269 (10);7124; and Giros, B. et al. Trends. Pharmacol. Sci. 1993, 14: 43. The human muscarinic M1–M4 screens were conducted according to Buckley N. J. et al. Mol. Pharmacol. 1989, 35:469.

[2] = biological target: T2, human dopamine D3 receptor (Homo sapiens, UniProt P35462); assay: Radioligand binding assay, human dopamine D3 receptors ([3H]Spiperone)
T2 construct: expressed in transfected cells; host or cells: CHO
T2 sequence (P35462 whole entry): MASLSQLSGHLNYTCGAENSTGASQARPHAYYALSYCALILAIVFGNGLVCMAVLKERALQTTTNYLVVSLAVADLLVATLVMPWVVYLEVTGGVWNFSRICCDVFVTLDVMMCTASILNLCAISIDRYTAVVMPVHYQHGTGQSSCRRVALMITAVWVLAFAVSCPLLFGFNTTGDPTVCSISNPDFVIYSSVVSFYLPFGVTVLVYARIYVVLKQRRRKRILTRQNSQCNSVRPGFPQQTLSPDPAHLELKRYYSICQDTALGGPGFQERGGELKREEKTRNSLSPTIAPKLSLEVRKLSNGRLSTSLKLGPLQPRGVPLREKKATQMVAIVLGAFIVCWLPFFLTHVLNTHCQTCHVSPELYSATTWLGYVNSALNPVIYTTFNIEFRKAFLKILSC
Description: The assay for binding to human D3 receptors was conducted according to Sokoloff, P. et al. Nature 1990, 347, 146.
CHO cells stably transfected with a plasmid encoding the human dopamine D3 receptor were used to prepare membranes in modified Tris-HCl pH 7.4 buffer using standard techniques. […] Non-specific binding was estimated in the presence of 25 μM S-(−)-sulpiride. […] See Sokoloff, P. et al. “Molecular cloning and characterization of a novel dopamine receptor (D3) as a target for neuroleptics” Nature 347: 146–151, 1990.
as §2

[3] = biological target: T3, human dopamine transporter (Homo sapiens, UniProt Q01959); assay: Binding to human dopamine transporter ([125I]RTI-55); details: human, read-out: IC50 (nM) DAT
T3 construct: expressed in transfected cells; host or cells: CHO-K1
T3 sequence (Q01959 whole entry): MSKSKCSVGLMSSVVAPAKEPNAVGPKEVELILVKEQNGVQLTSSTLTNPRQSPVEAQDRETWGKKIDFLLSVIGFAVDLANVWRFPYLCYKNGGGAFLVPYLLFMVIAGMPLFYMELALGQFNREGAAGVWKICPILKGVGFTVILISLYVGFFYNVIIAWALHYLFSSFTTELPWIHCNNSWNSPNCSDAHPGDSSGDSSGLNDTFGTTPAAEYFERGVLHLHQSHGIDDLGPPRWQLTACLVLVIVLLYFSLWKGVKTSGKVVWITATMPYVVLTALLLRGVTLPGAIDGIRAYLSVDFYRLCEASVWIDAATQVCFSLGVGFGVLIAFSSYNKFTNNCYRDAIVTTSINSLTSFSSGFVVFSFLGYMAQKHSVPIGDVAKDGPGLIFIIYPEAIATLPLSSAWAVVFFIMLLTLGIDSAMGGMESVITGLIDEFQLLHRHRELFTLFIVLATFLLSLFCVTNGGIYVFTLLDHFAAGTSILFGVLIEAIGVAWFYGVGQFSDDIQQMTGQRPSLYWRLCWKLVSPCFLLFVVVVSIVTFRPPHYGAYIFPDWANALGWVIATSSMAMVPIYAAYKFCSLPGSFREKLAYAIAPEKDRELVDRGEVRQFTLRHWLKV
Description: CHO-K1 cell membranes stably transfected with a plasmid encoding the human dopamine transporter were prepared in modified Tris-HCl pH 7.4 buffer using standard techniques. […] Non-specific binding was estimated in the presence of 10 μM nomifensine. […] Trends. […]

[4] = biological target: T4, human serotonin 5-HT2A receptor (Homo sapiens, UniProt P28223); assay: Radioligand binding assay, human 5-HT2A receptors ([3H]Ketanserin)
T4 construct: expressed in transfected cells; host or cells: CHO-K1
T4 sequence (P28223 whole entry): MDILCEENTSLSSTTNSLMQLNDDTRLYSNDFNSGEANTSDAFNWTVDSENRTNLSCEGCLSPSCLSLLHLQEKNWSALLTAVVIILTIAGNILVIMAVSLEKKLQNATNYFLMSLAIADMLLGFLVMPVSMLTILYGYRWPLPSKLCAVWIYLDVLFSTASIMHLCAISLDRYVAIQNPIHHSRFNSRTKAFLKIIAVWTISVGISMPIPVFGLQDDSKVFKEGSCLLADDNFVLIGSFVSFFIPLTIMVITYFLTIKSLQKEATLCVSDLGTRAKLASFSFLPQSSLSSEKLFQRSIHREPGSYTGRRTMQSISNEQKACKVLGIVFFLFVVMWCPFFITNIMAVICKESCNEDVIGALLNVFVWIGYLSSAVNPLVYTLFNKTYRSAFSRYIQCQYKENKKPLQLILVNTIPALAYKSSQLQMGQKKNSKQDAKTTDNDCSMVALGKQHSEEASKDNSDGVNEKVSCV
Description: as §1
CHO-K1 cells stably transfected with a plasmid encoding the human serotonin 5-HT2A receptor were used to prepare membranes in modified Tris-HCl pH 7.7 buffer using standard techniques. […] Non-specific binding was estimated in the presence of 1 μM mianserin. […] See Bonhaus, D. W. et al. “The pharmacology and distribution of human 5-hydroxytryptamine2B (5-HT2B) receptor gene products: comparison with 5-HT2A and 5-HT2C receptors” Brit. J. Pharmacol. 115: 622–628, 1995; and Saucier, C and Albert, P. R. “Identification of an endogenous 5-hydroxytryptamine2A receptor in NIH-3T3 cells: agonist-induced down-regulation involves decreases in receptor RNA and number” J. Neurochem. 68: 1998–2011, 1997.
as §2

[5] = biological target: T5, human serotonin 5-HT2B receptor (Homo sapiens, UniProt P41595); assay: Radioligand binding assay, human 5-HT2B receptors ([3H]LSD)
T5 construct: expressed in transfected cells; host or cells: CHO-K1
T5 sequence (P41595 whole entry): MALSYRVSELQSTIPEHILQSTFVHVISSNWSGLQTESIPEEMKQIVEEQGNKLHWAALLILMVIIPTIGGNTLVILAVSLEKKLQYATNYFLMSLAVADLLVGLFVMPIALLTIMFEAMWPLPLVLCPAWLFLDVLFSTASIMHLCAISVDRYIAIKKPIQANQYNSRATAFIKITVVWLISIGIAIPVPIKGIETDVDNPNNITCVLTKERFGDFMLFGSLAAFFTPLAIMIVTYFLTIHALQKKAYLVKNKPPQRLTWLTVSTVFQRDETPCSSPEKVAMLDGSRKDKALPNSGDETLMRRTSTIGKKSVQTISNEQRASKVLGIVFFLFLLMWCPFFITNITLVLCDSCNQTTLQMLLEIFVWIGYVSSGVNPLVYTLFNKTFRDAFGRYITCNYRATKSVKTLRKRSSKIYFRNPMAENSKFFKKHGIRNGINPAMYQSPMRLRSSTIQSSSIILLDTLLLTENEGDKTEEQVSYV
Description: This assay measures binding of [^3H]LSD to human serotonin 5-HT2B receptors. CHO-K1 cells stably transfected with a plasmid encoding the human serotonin 5-HT2B receptor were used to prepare membranes in modified Tris-HCl pH 7.4 buffer using standard techniques. […] Non-specific binding was estimated in the presence of 10 μM serotonin. Membranes were filtered and washed 3 times and the filters were counted to determine [^3H]LSD specifically bound. See Bonhaus, D. W. et al. “The pharmacology and distribution of human 5-hydroxytryptamine2B (5-HT2B) receptor gene products: comparison with 5-HT2A and 5-HT2C receptors” Brit.
The human 5-HT2b screen was conducted according to Wolf, W. A. et al. J. Neurochem.

[6] = biological target: T6, human serotonin 5-HT2C receptor (Homo sapiens, UniProt P28335); assay: Radioligand binding assay, human 5-HT2C receptors ([3H]Mesulergine)
T6 construct: expressed in transfected cells; host or cells: CHO-K1
T6 sequence (P28335 33-458): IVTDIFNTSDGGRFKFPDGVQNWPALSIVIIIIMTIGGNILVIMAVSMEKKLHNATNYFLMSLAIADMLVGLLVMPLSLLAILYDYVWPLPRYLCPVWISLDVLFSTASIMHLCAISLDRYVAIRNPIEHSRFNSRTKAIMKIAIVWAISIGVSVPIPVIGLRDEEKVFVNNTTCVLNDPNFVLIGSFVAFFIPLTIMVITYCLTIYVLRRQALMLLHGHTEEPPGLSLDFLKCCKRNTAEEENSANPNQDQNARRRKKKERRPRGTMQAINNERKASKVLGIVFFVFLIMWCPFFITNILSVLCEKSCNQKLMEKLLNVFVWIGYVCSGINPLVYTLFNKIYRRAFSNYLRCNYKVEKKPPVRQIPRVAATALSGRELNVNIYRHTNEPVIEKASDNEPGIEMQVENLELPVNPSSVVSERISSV
Description: as §1
CHO-K1 cells stably transfected with a plasmid encoding the human serotonin 5-HT2C receptor were used to prepare membranes in modified Tris-HCl pH 7.7 buffer using standard techniques. […] Non-specific binding was estimated in the presence of 1 μM mianserin. […] See Wolf, W. A. and Schutz, J. S. “The serotonin 5-HT2C receptor is a prominent serotonin receptor in basal ganglia: evidence from functional studies on serotonin-mediated phosphoinositide hydrolysis” J. Neurochem. 69: 1449–1458, 1997.
as §2

[7] = human, Example 100 table, read-out: IC50 (nM) D3
[8] = human 5-HT2a, Example 16 table, read-out: IC50 (nM) 5-HT2a
[9] = human 5-HT2b, Example 16 table, read-out: IC50 (nM) 5-HT2b
[10] = human 5-HT2c, Example 16 table, read-out: IC50 (nM) 5-HT2c
[11] = Example 20 table, read-out: IC50 (nM) Against Human D3 Receptors

T1 sequence (P50406 whole entry): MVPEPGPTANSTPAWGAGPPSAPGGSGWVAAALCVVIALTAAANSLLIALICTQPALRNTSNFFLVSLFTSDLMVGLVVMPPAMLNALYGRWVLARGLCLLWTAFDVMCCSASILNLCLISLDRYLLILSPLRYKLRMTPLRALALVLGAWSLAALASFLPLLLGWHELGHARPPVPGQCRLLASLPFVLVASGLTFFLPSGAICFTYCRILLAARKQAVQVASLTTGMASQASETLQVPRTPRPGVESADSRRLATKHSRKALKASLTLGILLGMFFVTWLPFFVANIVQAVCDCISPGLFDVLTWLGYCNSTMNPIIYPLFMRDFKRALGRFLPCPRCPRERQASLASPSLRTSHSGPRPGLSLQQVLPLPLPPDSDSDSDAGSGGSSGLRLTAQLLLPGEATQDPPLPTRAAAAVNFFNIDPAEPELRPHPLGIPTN

SMILES | IC50 ([1]; human, Example 100 table) | IC50 [2, 7] | IC50 ([3]; Example 100 table) | IC50 [4, 8] | IC50 [5, 9] | IC50 [6, 10] | IC50 ([1]; human 5-HT6, Example 16 table) | IC50 [2, 11] | IC50 ([3]; Example 101 table) | IC50 ([4]; human, Example 100 table, read-out: IC50 (nM) 5-HT2A) | IC50 ([5]; human, Example 100 table, read-out: IC50 (nM) 5-HT2B) | IC50 ([6]; human, Example 100 table, read-out: IC50 (nM) 5-HT2C)
CN1CCCC1CCNc1nc(C2(c3ccccc3F)CCCC2)cs1 (centres unmarked) [Compound 111] | < 1000 nM | < 1000 nM | > 1000 nM |  |  |  |  |  |  |  |  | 
CN1CCN(c2nc(C3(c4ccc(Cl)cc4)CCC3)no2)CC1 [Compound 28, 1-{3-[1-(4-chlorophenyl)cyclobutyl]-[1,2,4]oxadiazol-5-yl}-4-methylpiperazine] |  |  |  | > 1000 nM | > 1000 nM | > 1000 nM | > 1000 nM | > 1000 nM | > 1000 nM |  |  | 
CN1CCCC1CCNc1nc(C2(c3ccc(Cl)cc3)CCOCC2)cs1 (racemic) [Compound 125, {4-[4-(4-chlorophenyl)-tetrahydropyran-4-yl]-thiazol-2-yl}-[2-(1-methyl-pyrrolidin-2-yl)-ethyl]-amine] | > 1000 nM | > 1000 nM | > 1000 nM |  |  |  |  |  |  |  |  | 
CN1CCN(c2nc(C3(c4ccc(Cl)cc4)CCC3)cs2)CC1 [Compound 27, 1-{4-[1-(4-chlorophenyl)cyclobutyl]thiazol-2-yl}-4-methylpiperazine] |  |  |  | < 1000 nM | < 1000 nM | < 1000 nM | < 1000 nM | < 1000 nM | < 500 nM |  |  | 
Fc1ccccc1C1(c2csc(N3CCNCC3)n2)CCCC1 [Compound 121] | < 100 nM | > 1000 nM | > 1000 nM |  |  |  |  |  |  |  |  | 
Clc1ccc(C2(c3csc(NCCN4CCOCC4)n3)CCC2)cc1 [Compound 22, {4-[1-(4-chlorophenyl)-cyclobutyl]thiazol-2-yl}-(2-morpholin-4-yl-ethyl)amine] |  |  |  | > 1000 nM | > 1000 nM | > 1000 nM | > 1000 nM | > 1000 nM | > 1000 nM |  |  | 
CN1CCN(c2nc(CCc3ccc(Cl)cc3)cs2)CC1 [Compound 32] |  |  |  | < 100 nM | < 1000 nM | < 100 nM | > 1000 nM | > 1000 nM | > 1000 nM |  |  | 
CN1CCC(c2nc(C3(c4ccc(Cl)cc4)CCCCC3)cs2)CC1 [Compound 35] |  |  |  | < 1000 nM | < 1000 nM | < 1000 nM | < 1000 nM | < 100 nM | < 100 nM |  |  | 
CNC1CCN(c2nc(C3(c4ccccc4F)CCCCC3)cs2)C1 (centres unmarked) [Compound 134, (1-{4-[1-(2-fluorophenyl)-cyclohexyl]-thiazol-2-yl}-pyrrolidin-3-yl)-methyl-amine] | < 1000 nM | > 1000 nM | > 1000 nM |  |  |  |  |  |  |  |  | 
CN1CCN(c2nc(C3(c4ccc(Cl)cc4)CCCC3)cs2)CC1 [Compound 85] |  |  |  | > 1000 nM | < 1000 nM | < 1000 nM | < 100 nM | < 1000 nM | < 100 nM |  |  | 
CN1CCCC1CCNc1nc(C2(c3ccc(Cl)cc3)CCC2)cs1 (centres unmarked) [Compound 24, {4-[1-(4-chlorophenyl)-cyclobutyl]thiazol-2-yl}-[2-(1-methylpyrrolidin-2-yl)ethyl]amine] |  |  |  | < 100 nM | < 100 nM | < 10 nM | < 1000 nM | < 1000 nM | < 500 nM |  |  | 
Clc1ccc(C2(c3csc(NCCN4CCOCC4)n3)CCCC2)cc1 [Compound 99] | < 1000 nM | > 1000 nM | < 1000 nM |  |  |  |  |  |  |  |  | 
Clc1ccc(C2(c3csc(NCCN4CCCCC4)n3)CCC2)cc1 [Compound 23, {4-[1-(4-chlorophenyl)-cyclobutyl]thiazol-2-yl}-(2-piperidin-1-yl-ethyl)amine] |  |  |  | < 1000 nM | < 1000 nM | < 100 nM | > 1000 nM | < 1000 nM | < 500 nM |  |  | 
CN1CCC(N(C)c2nc(C3(c4ccc(Cl)cc4)CCCC3)cs2)C1 (centres unmarked) [Compound 116] | < 10 nM | > 1000 nM | < 1000 nM |  |  |  |  |  |  |  |  | 
Fc1ccccc1C1(c2csc(N3CCN(CC4CC4)CC3)n2)CCCC1 [Compound 122] | < 1000 nM | < 1000 nM | < 1000 nM |  |  |  |  |  |  |  |  | 
Cc1c(-c2csc(N3CCN(C)CC3)n2)sc2ccc(Cl)cc12 [Compound 113] | > 1000 nM | > 1000 nM |  |  |  |  |  |  |  | < 1000 nM | > 1000 nM | < 1000 nM

From patent publication US7087623B2, “Thiazole and other heterocyclic ligands for mammalian dopamine, muscarinic and serotonin receptors and transporters, and methods of use thereof” (Sepracor Inc., priority 2001, dated 2006)
